Assay results as given in patent publication US20260109707A1, “HETEROBIFUNCTIONAL COMPOUNDS AND METHODS OF TREATING DISEASE” (Halda Therapeutics OpCo. Inc., priority 2022, published 2026).
Read-outs that look alike come from different tables or passages of the source.

Assays:
T47D cells = experiment: Cellular growth inhibition assay for T47D cells (CellTiter-Glo, 72 hours); format: cell-based, human; conditions: 72 hours treatment
Method in brief: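 Cells are plated at 3000/well and allowed 24 h before treatment. Test compound in medium containing 0.5% DMSO is then added, with DMSO-only wells as negative control, and plates are incubated 72 h at 37 °C. ATP luminescence (CellTiter-Glo 2.0) is then fitted to four parameters to derive GI50.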

[1] = tested on: T-Rex 293 cell line SC3 cells having increased expression of androgen receptor protein due to exposure to doxycycline; experiment: Cellular growth inhibition assay, T-Rex 293 SC3 cells with doxycycline (CellTiter-Glo, 72 hours); format: cell-based; conditions: T-Rex 293 SC3 cells with increased androgen receptor expression due to doxycycline (10 ng/mL)
Method in brief: (§1)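 Doxycycline (10 ng/mL) was either included or omitted to toggle wild-type androgen receptor expression in SC3 cells, a T-Rex 293 clone, grown in stripped-serum, phenol red-free medium. After 72 hours with compound, viable cells were quantified by CellTiter-Glo 2.0.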

VCaP cells = experiment: Cellular growth inhibition assay for VCaP cells (CellTiter-Glo, 72 hours); format: cell-based, human
Method in brief: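 Luminescent viability signal after 72 h of compound exposure gave GI50 values by four-parameter nonlinear regression. Compounds were added in 0.5% DMSO to cells plated 24 h earlier at 5000/well in DMEM containing 10% FBS.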

[2] = tested on: T-Rex 293 cell line SC3 cells lacking increased expression of androgen receptor protein; experiment: Cellular growth inhibition assay, T-Rex 293 SC3 cells without doxycycline (CellTiter-Glo, 72 hours); format: cell-based; conditions: T-Rex 293 cell line SC3 cells not exposed to doxycycline (lacking increased androgen receptor expression)
Method in brief: as §1

| SMILES | GI50 (T47D cells; Homo sapiens, T47D, 72 h) | GI50 (VCaP cells; Homo sapiens, VCaP, 72 h) | GI50 (T47D cells) | GI50 (VCaP cells) | GI50 ([1]; 72 h) | GI50 ([2]; 72 h) | GI50 [1] | GI50 [2] |
| --- | --- | --- | --- | --- | --- | --- | --- | --- |
| Cc1sc2c(c1C)C(c1ccc(C#CC3CC4(CCN(c5ccc(C(=O)N[C@H]6CC[C@H](Oc7ccc(C#N)c(Cl)c7)CC6)nn5)CC4)C3)cc1)=N[C@@H](Cc1ncco1)c1nnc(C)n1-2 [I-139] | < 500 nM | < 500 nM | – | – | < 500 nM | < 500 nM | – | – |
| Cc1sc2c(c1C)C(c1ccc(C(=O)N3CCN(C(=O)c4ccc(C(=O)N[C@H]5CC[C@H](Oc6ccc(C#N)c(Cl)c6)CC5)nn4)CC3)cc1)=N[C@H](Cc1ncco1)c1nnc(C)n1-2 [I-239] | > 3000 nM | 1500 to 3000 nM | – | – | < 500 nM | > 3000 nM | – | – |
| Cc1sc2c(c1C)C(c1ccc(N3CC4(C3)CC3(CCN(c5ccc(C(=O)N[C@H]6CC[C@H](Oc7ccc(C#N)c(Cl)c7)CC6)nn5)CC3)C4)cc1)=N[C@@H](Cc1ncco1)c1nnc(C)n1-2 [I-348] | < 500 nM | < 500 nM | – | – | < 500 nM | > 3000 nM | – | – |
| Cc1sc2c(c1C)C(c1ccc(C[C@@H]3CC[C@@]4(CCCN(c5ccc(C(=O)N[C@H]6CC[C@H](Oc7ccc(C#N)c(Cl)c7)CC6)nn5)C4)C3)cc1)=N[C@@H](Cc1ncco1)c1nnc(C)n1-2 [I-125] | < 500 nM | < 500 nM | – | – | < 500 nM | < 500 nM | – | – |
| Cc1sc2c(c1C)C(c1ccc(C(C)(C)N3CC4(CCCN(c5ccc(C(=O)N[C@H]6CC[C@H](Oc7ccc(C#N)c(Cl)c7)CC6)nn5)C4)C3)cc1)=N[C@@H](Cc1ncco1)c1nnc(C)n1-2 [I-392] | > 3000 nM | 500 to 1500 nM | – | – | < 500 nM | > 3000 nM | – | – |
| Cc1sc2c(c1C)C(c1ccc(OC[C@H]3CC[C@]4(CCCN(c5ccc(C(=O)N[C@H]6CC[C@H](Oc7ccc(C#N)c(Cl)c7)CC6)nn5)C4)C3)nc1)=N[C@@H](Cc1ncco1)c1nnc(C)n1-2 [I-329] | > 3000 nM | < 500 nM | – | – | < 500 nM | > 3000 nM | – | – |
| Cc1sc2c(c1C)C(c1ccc(N3CCC4(CCCN(c5ccc(C(=O)N[C@H]6CC[C@H](Oc7ccc(C#N)c(Cl)c7)CC6)nn5)C4)CC3)cc1)=NC1(CC1)c1nnc(C)n1-2 [I-398] | > 3000 nM | 1500 to 3000 nM | – | – | < 500 nM | > 3000 nM | – | – |
| Cc1sc2c(c1C)C(c1ccc(CN3CCN(C(=O)c4ccc(C(=O)N[C@H]5CC[C@H](Oc6ccc(C#N)c(Cl)c6)CC5)nn4)CC3)cc1)=N[C@@H](Cc1ncco1)c1nnc(C)n1-2 [I-242] | < 500 nM | < 500 nM | – | – | < 500 nM | < 500 nM | – | – |
| Cc1sc2c(c1C)C(c1ccc(N3CCC4(CCCN(c5ccc(C(=O)N[C@H]6CC[C@H](Oc7ccc(C#N)c(Cl)c7)CC6)nn5)C4)CC3)cc1)=N[C@@H](Cc1ncco1)c1nnc(C)n1-2 [I-367] | < 500 nM | < 500 nM | – | – | < 500 nM | < 500 nM | – | – |
| Cc1sc2c(c1C)C(c1ccc(O[C@@H]3CC[C@]4(CCCN(c5ccc(C(=O)N[C@H]6CC[C@H](Oc7ccc(C#N)c(Cl)c7)CC6)nn5)C4)C3)cn1)=N[C@@H](Cc1ncco1)c1nnc(C)n1-2 [I-360] | < 500 nM | < 500 nM | – | – | < 500 nM | < 500 nM | – | – |
| Cc1sc2c(c1C)C(c1ccc(OCC3CC4(CCCN(c5ccc(C(=O)N[C@H]6CC[C@H](Oc7ccc(C#N)c(Cl)c7)CC6)nn5)C4)C3)nc1)=N[C@@H](C)c1nnc(C)n1-2 (stereo partly drawn) [I-425] | – | – | 500 to 1500 nM | < 500 nM | – | – | < 500 nM | 500 to 1500 nM |
| Cc1sc2c(c1C)C(c1ccc([C@@H]3CCCCN3C(=O)[C@H]3CCCN(c4ccc(C(=O)N[C@H]5CC[C@H](Oc6ccc(C#N)c(Cl)c6)CC5)nn4)C3)cc1)=N[C@@H](Cc1ncco1)c1nnc(C)n1-2 [I-297] | 500 to 1500 nM | < 500 nM | – | – | < 500 nM | > 3000 nM | – | – |
| Cc1sc2c(c1C)C(c1ccc(C#CC3CC4(C3)CN(c3ccc(C(=O)N[C@H]5CC[C@H](Oc6ccc(C#N)c(Cl)c6)CC5)nn3)C4)cc1)=NC1(CC1)c1nnc(C)n1-2 [I-418] | < 500 nM | < 500 nM | – | – | < 500 nM | < 500 nM | – | – |
| Cc1sc2c(c1C)C(c1ccc(O[C@@H]3CC[C@]4(CCCN(c5ccc(C(=O)N[C@H]6CC[C@H](Oc7ccc(C#N)c(Cl)c7)CC6)nn5)C4)C3)nc1)=N[C@@H](Cc1ncco1)c1nnc(C)n1-2 [I-286] | – | – | 500 to 1500 nM | < 500 nM | – | – | < 500 nM | > 3000 nM |
| Cc1sc2c(c1C)C(c1ccc(OCC3CC4(CCCN(c5ccc(C(=O)N[C@H]6CC[C@H](Oc7ccc(C#N)c(Cl)c7)CC6)nn5)C4)C3)nc1)=N[C@@H](C)c1nnc(C)n1-2 (stereo partly drawn) [I-424] | 500 to 1500 nM | < 500 nM | – | – | < 500 nM | – | – | > 3000 nM |

The next lines start with results.

| GI50 (T47D cells; Homo sapiens, T47D, 72 h) | GI50 (VCaP cells; Homo sapiens, VCaP, 72 h) | GI50 (T47D cells) | GI50 (VCaP cells) | SMILES | GI50 ([1]; 72 h) | GI50 ([2]; 72 h) | GI50 [1] | GI50 [2] |
| --- | --- | --- | --- | --- | --- | --- | --- | --- |
| < 500 nM | < 500 nM | – | – | Cc1sc2c(c1C)C(c1ccc(O[C@@H]3CCCN(c4ccc(C(=O)N[C@H]5CC[C@H](Oc6ccc(C#N)c(Cl)c6)CC5)nn4)C3)cc1)=N[C@@H](Cc1ncco1)c1nnc(C)n1-2 [I-224] | < 500 nM | > 3000 nM | – | – |
| 500 to 1500 nM | < 500 nM | – | – | CCNC(=O)C[C@@H]1N=C(c2ccc(N(C)CCN3CCN(c4ccc(C(=O)N[C@H]5CC[C@H](Oc6ccc(C#N)c(Cl)c6)CC5)nn4)CC3)cc2)c2c(sc(C)c2C)-n2c(C)nnc21 [I-35] | < 500 nM | 500 to 1500 nM | – | – |
| 500 to 1500 nM | < 500 nM | – | – | CCNC(=O)C[C@@H]1N=C(c2ccc(OCCN(C)c3ccc(C(=O)N[C@H]4CC[C@H](Oc5ccc(C#N)c(Cl)c5)CC4)nn3)cc2)c2c(sc(C)c2C)-n2c(C)nnc21 [I-49] | < 500 nM | 500 to 1500 nM | – | – |
| < 500 nM | < 500 nM | – | – | Cc1sc2c(c1C)C(c1ccc([C@H]3C[C@H](C[C@@H]4CCCN(c5ccc(C(=O)N[C@H]6CC[C@H](Oc7ccc(C#N)c(Cl)c7)CC6)nn5)C4)C3)cc1)=N[C@@H](Cc1ncco1)c1nnc(C)n1-2 [I-357] | < 500 nM | < 500 nM | – | – |
| > 3000 nM | > 3000 nM | – | – | Cc1sc2c(c1C)C(c1ccc([C@H]3C[C@@H]([C@@H]4CCCN(c5ccc(C(=O)N[C@H]6CC[C@H](Oc7ccc(C#N)c(Cl)c7)CC6)nn5)C4)C3)cc1)=N[C@@H](Cc1ncco1)c1nnc(C)n1-2 [I-374] | > 3000 nM | > 3000 nM | – | – |
| 500 to 1500 nM | < 500 nM | – | – | CCNC(=O)C[C@@H]1N=C(c2ccc(N(C)CC3CN(c4ccc(C(=O)N[C@H]5CC[C@H](Oc6ccc(C#N)c(Cl)c6)CC5)nn4)C3)cc2)c2c(sc(C)c2C)-n2c(C)nnc21 [I-30] | < 500 nM | 500 to 1500 nM | – | – |
| 500 to 1500 nM | < 500 nM | – | – | Cc1sc2c(c1C)C(c1ccc(C#CC3CC4(C3)CN(c3ccc(C(=O)N[C@H]5CC[C@H](Oc6ccc(C#N)c(Cl)c6)CC5)nn3)C4)nc1)=N[C@@H](C)c1nnc(C)n1-2 [I-426] | < 500 nM | < 500 nM | – | – |
| > 3000 nM | < 500 nM | – | – | Cc1sc2c(c1C)C(c1ccc(C[C@H]3C[C@]4(CCCN(c5ccc(C(=O)N[C@H]6CC[C@H](Oc7ccc(C#N)c(Cl)c7)CC6)nn5)C4)C3)cc1)=N[C@@H](C)c1nnc(C)n1-2 [I-352] | < 500 nM | > 3000 nM | – | – |
| 1500 to 3000 nM | < 500 nM | – | – | Cc1sc2c(c1C)C(c1ccc(C(=O)N(C)CCCc3ccc(C(=O)N[C@H]4CC[C@H](Oc5ccc(C#N)c(Cl)c5)CC4)nn3)cc1)=N[C@H](Cc1ncco1)c1nnc(C)n1-2 [I-321] | < 500 nM | > 3000 nM | – | – |
